# Measured values: patent US5164411A, “Pyrethroid compositions” (priority 1991, dated 1992)
# Tests used:
# [1] = system: cabbage looper (Trichoplusia ni); test: Foliar evaluation, cabbage looper (CL); assay type: in vivo; details: for LC50: Trichoplusia ni, foliar, pinto beans, mortality at 48 hours
# Protocol: (§1) Cypermethrin and sigma-cypermethrin were tested by foliar application at various concentrations in aqueous solutions containing 9.75% acetone and 0.25% octylphenoxypolyethoxyethanol. Insect species utilized included the cabbage looper (Trichoplusia ni), southern armyworm (Spodoptera eridania), Mexican bean beetle (Epilachna varivestis), tobacco budworm (Heliothis virescens), and corn earworm (Heliothis zea).
# (§2) For all insects, pinto beans (Phaseolus vulgaris) plants were treated with the test solutions. The test solutions were applied with a sprayer to the upper and lower surfaces of the plant leaves to runoff. The plants were then allowed to dry and were severed at the base of the stem before being placed in cups. Ten second instar individuals of the appropriate insect species, except the tobacco budworm and corn earworm, were placed in each cup and the cup covered. Tests with the tobacco budworm and corn earworm used four replicates with each replicate containing five second instar insects. In all tests, mortality was read 48 hours later. The sigma-cypermethrin used in the foliar evaluations was the product of Example 2.
# [2] = system: Mexican bean beetle (Epilachna varivestis); test: Foliar evaluation, Mexican bean beetle (MBB); assay type: in vivo; details: for LC50: Epilachna varivestis, foliar, pinto beans, mortality at 48 hours
# Protocol: as §1, §2
# [3] = system: southern armyworm (Spodoptera eridania); test: Foliar evaluation, southern armyworm (SAW); assay type: in vivo; details: for LC50: Spodoptera eridania, foliar, pinto beans, mortality at 48 hours
# Protocol: as §1, §2
# [4] = system: tobacco budworm (Heliothis virescens); test: Foliar evaluation, tobacco budworm (TBW); assay type: in vivo; details: for LC50: Heliothis virescens, foliar, pinto beans, mortality at 48 hours
# Protocol: as §1, §2
# [5] = system: tobacco budworm strain resistant to pyrethroids; test: Foliar evaluation, pyrethroid-resistant tobacco budworm (TBW-R); assay type: in vivo, Heliothis virescens; details: for LC50: Heliothis virescens, foliar, pinto beans, mortality at 48 hours
# Protocol: as §1, §2
# [6] = system: corn earworm (Heliothis zea); test: Foliar evaluation, corn earworm (CEW); assay type: in vivo; details: for LC50: Helicoverpa zea, foliar, pinto beans, mortality at 48 hours
# Protocol: as §1, §2
# Heliothis sp. = test: Field trials on cotton, control of Heliothis sp.; assay type: in vivo, Heliothis virescens and Heliothis zea; details: for Yield: seed cotton per acre
# Text: Plots were a minimum of 0.2 acres, and all applications were by commercial ground equipment with a minimum of 10 gallons total spray solution per acre. The cypermethrin isomer content (weight %) of the several sigma-cypermethrin technical products used in the field trials were as follows:
# Analysis of the data was based on a seasonal average of multiple evaluations taken over a four to six week period (3-4 applications) in trials for control of Heliothis sp.
# cabbage looper = test: Field trials on lettuce, control of cabbage looper; assay type: in vivo, Trichoplusia ni
# Text: Field trials conducted on lettuce in California for evaluation of the control of cabbage looper consisted of a randomized complete block design of four replications per treatment. Applications were made to small plots with CO2 backpack sprayer using a minimum of 10 gallons per acre. Results were converted to percent control based on untreated check plots.
# rats = test: Multigeneration study; assay type: in vivo
# Protocol: Multigeneration studies were conducted in compliance with EPA guideline 83-4 and provide information on reproductive parameters as well as neonatal morbidity and mortality for multiple generations. Wistar rats were fed diets, throughout the study, containing 0, 50, 150, and 750 ppm of cypermethrin (the top dose level was 1000 ppm for the first 12 weeks, but was lowered to 750 ppm for the remainder of the study owing to toxicity). Similarly, Sprague-Dawley rats were fed diets containing 0, 7.5, 25, 100, 375, and 750 ppm of sigma-cypermethrin. (Again, the rates are lower for sigma-cypermethrin, because it was expected to be more toxic.) The cypermethrin isomer content (weight %) of the sigma-cypermethrin technical product used in this study was total isomers--89.1%, S-isomers--82%, cis/trans ratio--51/49. […] Body weights and food consumption were recorded at regular intervals.
# The breeding of parental and subsequent generations in each study was initiated with 30 females. In both studies appropriate dietary concentrations of test material were provided during cohabitation. Exposure of the parental males of each generation continued until a scheduled sacrifice following completion of the cohabitation periods, while exposure of parental females continued through to weaning of pups. Pups were weaned at postnatal day 28 in both studies.
# [7] = Ninety-six-hour flow-through acute toxicity, rainbow trout; assay type: in vivo, Oncorhynchus mykiss; details: 96 h flow-through, well water
# Protocol: (§3) Ninety-six-hour flow-through acute toxicity studies of both cypermethrin and sigma-cypermethrin were conducted in the rainbow trout (Oncorhynchus mykiss) and in the sheepshead minnow (Cyprinodon variagatus) to determine the median-lethal-concentration (LC50) resulting from continuous exposure. For the rainbow trout the exposure medium was well water; for the sheepshead minnow, filtered seawater. Each group of 20 fish (10 per replicate aquarium) was exposed either to one of five concentrations of pyrethroid delivered in a diluter system in dimethylformamide (DMF), to 30 μL/L DMF in the exposure medium (solvent control), or to the exposure medium alone (control). Observations for mortality, morbidity, and other overt signs of toxicity were determined at prescribed intervals. Concentrations of the test materials were measured at the beginning and end of the exposure using a validated HPLC method. The cypermethrin isomer content (weight %) of the sigma-cypermethrin technical product used in this study was total isomers--88.2%, S-isomers--82%, cis/trans ratio--53/47.
# [8] = Ninety-six-hour flow-through acute toxicity, sheepshead minnow; assay type: in vivo, Cyprinodon variagatus; details: 96 h flow-through, filtered seawater
# Protocol: as §3
# [9] = Year 1, 0.022 lb ai/A, seasonal mean of 3 trials (MS, LA)
# [10] = Year 1, 0.03 lb ai/A, seasonal mean of 3 trials (MS, LA)
# [11] = Year 2, 0.026 lb ai/A, seasonal mean of 4 trials (MS, LA)
# [12] = Year 3, 0.013 lb ai/A, seasonal mean of 6-8 trials (MS, LA, AL, GA)
# [13] = Year 3, 0.026 lb ai/A, seasonal mean of 6-8 trials (MS, LA, AL, GA)
# [14] = Year 3, 0.039 lb ai/A, seasonal mean of 6-8 trials (MS, LA, AL, GA)
# [15] = Year 1, 0.06 lb ai/A, seasonal mean of 3 trials (MS, LA)
# [16] = Year 2, 0.06 lb ai/A, seasonal mean of 4 trials (MS, LA)
# [17] = Year 3, 0.06 lb ai/A, seasonal mean of 6-8 trials (MS, LA, AL, GA)
structure (smiles),measurement,setting,value
"CC1(C)C(C=C(Cl)Cl)C1C(=O)O[C@H](C#N)c1cccc(Oc2ccccc2)c1 (mixture of isomers) [sigma-cypermethrin, (S)(cyano)(3-phenoxyphenyl)methyl cis/trans-3-(2,2-dichloroethenyl)-2,2-dimethylcyclopropanecarboxylate]",LC50,[1],1.4 µg/mL
same,Relative Potency,"[1]; vs cypermethrin, CL",1.6
same,LC50,[2],0.3 µg/mL
same,effectiveness relative to cypermethrin,"[2]; the only Coleoptera tested, laboratory",four times as effective
same,Relative Potency,"[2]; vs cypermethrin, MBB",4.0
same,LC50,[3],1.8 µg/mL
same,Relative Potency,"[3]; vs cypermethrin, SAW",2.3
same,LC50,[4],4.4 µg/mL
same,Relative Potency,"[4]; vs cypermethrin, TBW",1.7
same,LC50,[5],43 µg/mL
same,Relative Potency,"[5]; vs cypermethrin, TBW-R",2.1
same,LC50,[6],3.9 µg/mL
same,Relative Potency,"[6]; vs cypermethrin, CEW",1.9
same,% Hel. Live Larv.,Heliothis sp.; [9],10%
same,% Hel. Sq. Dam.,Heliothis sp.; [9],9%
same,Yield,"Heliothis sp.; Year 1, 0.022 lb ai/A, 3 trials (MS, LA)",2828 lb SC/A
same,% Hel. Live Larv.,Heliothis sp.; [10],8%
same,% Hel. Sq. Dam.,Heliothis sp.; [10],9%
same,Yield,"Heliothis sp.; Year 1, 0.03 lb ai/A, 3 trials (MS, LA)",2795 lb SC/A
same,% Hel. Live Larv.,Heliothis sp.; [11],3%
same,% Hel. Sq. Dam.,Heliothis sp.; [11],3%
same,% Hel. Live Larv.,Heliothis sp.; [12],6%
same,% Hel. Sq. Dam.,Heliothis sp.; [12],3%
same,Yield,"Heliothis sp.; Year 3, 0.013 lb ai/A, 6-8 trials",2818 lb SC/A
same,% Hel. Live Larv.,Heliothis sp.; [13],5%
same,% Hel. Sq. Dam.,Heliothis sp.; [13],4%
same,Yield,"Heliothis sp.; Year 3, 0.026 lb ai/A, 6-8 trials",2778 lb SC/A
same,% Hel. Live Larv.,Heliothis sp.; [14],5%
same,% Hel. Sq. Dam.,Heliothis sp.; [14],3%
same,Yield,"Heliothis sp.; Year 3, 0.039 lb ai/A, 6-8 trials",2692 lb SC/A
same,% Cabbage Looper Control,"cabbage looper; Year 1, 0.026 lb ai/A, 3 DAT, average of 2 trials (CA)",83%
same,% Cabbage Looper Control,"cabbage looper; Year 1, 0.026 lb ai/A, 7 DAT, average of 2 trials (CA)",90%
same,% Cabbage Looper Control,"cabbage looper; Year 2, 0.013 lb ai/A, 3 DAT, 1 trial (CA)",98%
same,% Cabbage Looper Control,"cabbage looper; Year 2, 0.013 lb ai/A, 7 DAT, 1 trial (CA)",71%
same,% Cabbage Looper Control,"cabbage looper; Year 2, 0.026 lb ai/A, 3 DAT, 1 trial (CA)",98%
same,% Cabbage Looper Control,"cabbage looper; Year 2, 0.026 lb ai/A, 7 DAT, 1 trial (CA)",91%
same,% Cabbage Looper Control,"cabbage looper; Year 2, 0.039 lb ai/A, 3 DAT, 1 trial (CA)",100%
same,% Cabbage Looper Control,"cabbage looper; Year 2, 0.039 lb ai/A, 7 DAT, 1 trial (CA)",98%
same,mortality of F1 generation litters,"rats; 750 ppm in diet, 28-day lactation and first week postweaning",excessive mortality
same,NOEL relative to that of cypermethrin,rats; multigeneration,twice that of cypermethrin
same,amount required to show an effect on rats relative to that expected from effect on insects,rats; multigeneration,four times
same,LC50 at 96 h,[7],0.69 ng/mL
same,LC50 at 96 h,[8],2.37 ng/mL
"CC1(C)C(C=C(Cl)Cl)C1C(=O)OC(C#N)c1cccc(Oc2ccccc2)c1 (centres unmarked) [cypermethrin, (cyano)(3-phenoxyphenyl)methyl 3-(2,2-dichloroethenyl)-2,2-dimethylcyclopropanecarboxylate, reference compound]",LC50,[1],2.3 µg/mL
same,LC50,[2],1.2 µg/mL
same,LC50,[3],4.2 µg/mL
same,LC50,[4],7.3 µg/mL
same,LC50,[5],92 µg/mL
same,LC50,[6],7.3 µg/mL
same,% Hel. Live Larv.,Heliothis sp.; [15],9%
same,% Hel. Sq. Dam.,Heliothis sp.; [15],9%
same,Yield,"Heliothis sp.; Year 1, 0.06 lb ai/A, 3 trials (MS, LA)",2641 lb SC/A
same,% Hel. Live Larv.,Heliothis sp.; [16],2%
same,% Hel. Sq. Dam.,Heliothis sp.; [16],3%
same,% Hel. Live Larv.,Heliothis sp.; [17],4%
same,% Hel. Sq. Dam.,Heliothis sp.; [17],3%
same,Yield,"Heliothis sp.; Year 3, 0.06 lb ai/A, 6-8 trials",2675 lb SC/A
same,% Cabbage Looper Control,"cabbage looper; Year 1, 0.06 lb ai/A, 3 DAT, average of 2 trials (CA)",61%
same,% Cabbage Looper Control,"cabbage looper; Year 1, 0.06 lb ai/A, 7 DAT, average of 2 trials (CA)",78%
same,% Cabbage Looper Control,"cabbage looper; Year 2, 0.06 lb ai/A, 3 DAT, 1 trial (CA)",94%
same,% Cabbage Looper Control,"cabbage looper; Year 2, 0.06 lb ai/A, 7 DAT, 1 trial (CA)",81%
same,toxicity at top dose level,"rats; 1000 ppm in diet, first 12 weeks, lowered to 750 ppm",toxicity
same,NOEL,"rats; in diet, multiple generations",50 ppm
same,LC50 at 96 h,[7],0.897 ng/mL
same,LC50 at 96 h,[8],3.88 ng/mL
